{"source": "patent US20230090111A1", "about": "“CXCL8 INHIBITOR AND PHARMACEUTICAL COMPOSITION THEREOF FOR USE IN THE TREATMENT OF CANCER-RELATED FATIGUE” (Dompe' farmaceutici SpA, priority 2020, published 2023)", "key": {"[1]": {"system": "patients with metastatic triple negative breast cancer (TNBC)", "test": "Randomized, double-blind, placebo-controlled phase 2 study (FRIDA): fatigue as treatment emergent adverse event (NCI-CTCAE 4.03)", "format": "in vivo, human", "experimental": "The study was conducted with 56 sites actively screening patients in the United States of America, Italy, France, Belgium, Spain, Czech Republic and Poland.\nTwo sub-groups of patients were studied: newly diagnosed metastatic patients and patients that had relapsed following a prior (neo)adjuvant chemotherapy regimen. Amongst other inclusion criteria, to be able to participate in the study, subjects were to have a Zubrod/ECOG Performance Status of 0 or 1 (0=Fully active; no performance restrictions 1=Strenuous physical activity restricted; fully ambulatory and able to carry out light work).\nThere was no limit to study treatment duration and patients remained in the study until disease progression, withdrawal of consent or unacceptable toxicity, whichever occurred first.\nInvestigators reported any adverse events experienced by study patients according to the NCI-CTCAE version 4.03. Toxicity was defined according to the grading scale for each parameter. According to this scale, the presence and intensity of fatigue is defined as follows: • Grade 1: Fatigue relieved by rest • Grade 2: Fatigue not relieved by rest, limiting instrumental ADL • Grade 3: Fatigue not relieved by rest, limiting self care ADL • where instrumental ADL refers to preparing meals, shopping for groceries or clothes, using the telephone, managing money, and the like and self care ADL refer to bathing, dressing and undressing, feeding self, using the toilet, taking medications, but not bedridden.\nThe distributions of fatigue as a treatment emergent adverse event (TEAE) irrespective of relationship with study treatment were compared among treatment groups using the Chi-squared test (Table 1)."}, "[2]": {"system": "dogs with osteosarcoma metastatic to the lungs", "test": "Prospective pilot study: QoL of dogs given doxorubicin, oclacitinib and ladarixin", "format": "in vivo", "design": "mqol gooddavs / mqol_sleeps / mqol_depressed / mqol_eats / mqol_drinks / mqol_moves / mqol_lays / mqol_active / mqol_play / mqol_presence / mqol_enjoyslife: scale not given here", "details": "for mqol gooddavs / mqol_active / mqol_depressed / mqol_drinks / mqol_eats / mqol_enjoyslife / mqol_lays / mqol_moves / mqol_play / mqol_presence / mqol_sleeps: with doxorubicin+oclacitinib", "experimental": "A prospective pilot study was conducted to evaluate whether the addition of ladarixin to doxorubicin and oclacitinib mitigates the adverse event profile associated with doxorubicin which includes fatigue, lethargy, anorexia and a general decrease in quality of life (QoL).\nA cohort of 5 dogs with osteosarcoma metastatic to the lungs was studied.\nIn this study, dogs received doxorubicin at […] IV, oclacitinib at 0.4-0.6 mg/kg orally twice per day (label dose) and ladarixin at 15 mg/kg twice per day.\nA well validated QoL for dogs with cancer was used (Giuffrida et al., J Am Vet Med Assoc, 252(9): 1073-1083) to assess changes in performance status and quality of life during the course of the study. The QoL values were reported as a numerical value and tracked over each study visit. All owners were required to maintain a diary to chart the administration of medications, note any changes in behaviour, document appetite and energy levels, and identify any other changes in constitutional changes. Owners also recorded a daily performance status (scale from 0 to 5)."}, "[3]": {"details": "oclacitinib alone; cited from earlier work"}, "[4]": {"system": "cancer-related fatigue (CRF)", "details": "A. Spathis et al., 2014; cited from earlier work"}, "[5]": {"details": "judged by investigators under double-blind conditions, Chi-squared P 0.020"}, "[6]": {"details": "paclitaxel plus reparixin (Group 1) or placebo (Group 2), Chi-squared P 0.003"}, "[7]": {"details": "D0, one value per dog (Record ID 1-5)"}, "[8]": {"details": "D7, one value per dog (Record ID 1-5)"}, "[9]": {"details": "D14, one value per dog (Record ID 1-5)"}, "[10]": {"details": "D21, one value per dog (Record ID 3-5)"}}, "note": "Where “and” joins values, the source holds several entries; their conditions need not be identical. Equal entries are not always repeated. Entries after “also recorded” stand apart in the source; their conditions may differ."}
{"compound": "CC(=O)O[C@H]1C(=O)[C@@]2(C)[C@H]([C@H](OC(=O)c3ccccc3)[C@]3(O)C[C@H](OC(=O)[C@H](O)[C@@H](NC(=O)c4ccccc4)c4ccccc4)C(C)=C1C3(C)C)[C@]1(OC(C)=O)CO[C@@H]1C[C@@H]2O", "note": "[paclitaxel]", "values": [{"measurement": "Subjects with severe (Grade 3) treatment-related fatigue, number", "setting": "[1]; in vivo", "result": "two"}, {"measurement": "Subjects with severe (Grade 3) treatment-related fatigue, percent", "setting": "[1]; in vivo", "result": 3.3, "unit": "%"}, {"measurement": "Fatigue as TEAE at least possibly related to study treatment: No, number of subjects", "setting": "[1]; [5]", "result": 43}, {"measurement": "Fatigue as TEAE at least possibly related to study treatment: No, percent of subjects", "setting": "[1]; [5]", "result": 71.7, "unit": "%"}, {"measurement": "Fatigue as TEAE at least possibly related to study treatment: Yes, number of subjects", "setting": "[1]; [5]", "result": 17, "unit": "subjects"}, {"measurement": "Fatigue as TEAE at least possibly related to study treatment: Yes, percent of subjects", "setting": "[1]; [5]", "result": 28.3, "unit": "%"}, {"measurement": "Fatigue as TEAE irrespective of relationship with study treatment: Yes, number of subjects", "setting": "[1]; paclitaxel 80 mg/m2 i.v. plus reparixin 1200 mg t.i.d. (Group 1) or placebo (Group 2), Chi-squared P 0.003", "result": 26, "unit": "subjects"}, {"measurement": "Fatigue as TEAE irrespective of relationship with study treatment: No, number of subjects", "setting": "[1]; [6]", "result": 34}, {"measurement": "Fatigue as TEAE irrespective of relationship with study treatment: No, percent of subjects", "setting": "[1]; [6]", "result": 56.7, "unit": "%"}, {"measurement": "Fatigue as TEAE irrespective of relationship with study treatment: Yes, percent of subjects", "setting": "[1]; [6]", "result": 43.3, "unit": "%"}]}
{"compound": "C[C@@H](C(=O)NS(C)(=O)=O)c1ccc(OS(=O)(=O)C(F)(F)F)cc1", "note": "[ladarixin]", "values": [{"measurement": "total QoL score", "setting": "[2]; 5 dogs, ladarixin with doxorubicin and oclacitinib", "result": "over 100"}, {"measurement": "mqol gooddavs", "setting": "[2]; [7]", "result": "5 (4×) and 4"}, {"measurement": "mqol_active", "setting": "[2]; [7]", "result": "5 (3×) and 2 and 4"}, {"measurement": "mqol_depressed", "setting": "[2]; [7]", "result": "5 (3×) and 4 (2×)"}, {"measurement": "mqol_drinks", "setting": "[2]; [7]", "result": "5 (4×) and 4"}, {"measurement": "mqol_eats", "setting": "[2]; [7]", "result": "5 (4×) and 4"}, {"measurement": "mqol_enjoyslife", "setting": "[2]; [7]", "result": "5 (4×) and 4"}, {"measurement": "mqol_lays", "setting": "[2]; [7]", "result": "5 (4×) and 2"}, {"measurement": "mqol_moves", "setting": "[2]; [7]", "result": "5 (4×) and 2"}, {"measurement": "mqol_play", "setting": "[2]; [7]", "result": "5 (4×) and 4"}, {"measurement": "mqol_presence", "setting": "[2]; [7]", "result": "5 (4×) and 4"}, {"measurement": "mqol_sleeps", "setting": "[2]; [7]", "result": "4 and 3 and 5 (3×)"}, {"measurement": "mqol gooddavs", "setting": "[2]; [8]", "result": "4 and 5 (4×)"}, {"measurement": "mqol_active", "setting": "[2]; [8]", "result": 5}, {"measurement": "mqol_depressed", "setting": "[2]; [8]", "result": "4 and 5 (4×)"}, {"measurement": "mqol_drinks", "setting": "[2]; [8]", "result": 5}, {"measurement": "mqol_eats", "setting": "[2]; [8]", "result": "5 (4×) and 3"}, {"measurement": "mqol_enjoyslife", "setting": "[2]; [8]", "result": 5}, {"measurement": "mqol_lays", "setting": "[2]; [8]", "result": "4 and 5 (4×)"}, {"measurement": "mqol_moves", "setting": "[2]; [8]", "result": "4 and 5 (4×)"}, {"measurement": "mqol_play", "setting": "[2]; [8]", "result": "5 (4×) and 4"}, {"measurement": "mqol_presence", "setting": "[2]; [8]", "result": 5}, {"measurement": "mqol_sleeps", "setting": "[2]; [8]", "result": "4 (2×) and 2 and 1 and 5"}, {"measurement": "mqol gooddavs", "setting": "[2]; [9]", "result": 5}, {"measurement": "mqol_active", "setting": "[2]; [9]", "result": "5 (3×) and 4 and 3"}, {"measurement": "mqol_depressed", "setting": "[2]; [9]", "result": "5 (4×) and 4"}, {"measurement": "mqol_drinks", "setting": "[2]; [9]", "result": 5}, {"measurement": "mqol_eats", "setting": "[2]; [9]", "result": 5}, {"measurement": "mqol_enjoyslife", "setting": "[2]; [9]", "result": 5}, {"measurement": "mqol_lays", "setting": "[2]; [9]", "result": "5 (4×) and 4"}, {"measurement": "mqol_moves", "setting": "[2]; [9]", "result": "5 (2×) and 4 (3×)"}, {"measurement": "mqol_play", "setting": "[2]; [9]", "result": 5}, {"measurement": "mqol_presence", "setting": "[2]; [9]", "result": "5 (4×) and 4"}, {"measurement": "mqol_sleeps", "setting": "[2]; [9]", "result": "5 (2×) and 4 and 3 (2×)"}, {"measurement": "mqol gooddavs", "setting": "[2]; [10]", "result": "5 (2×) and 4"}, {"measurement": "mqol_active", "setting": "[2]; [10]", "result": "5 (2×) and 2"}, {"measurement": "mqol_depressed", "setting": "[2]; [10]", "result": "5 (2×) and 4"}, {"measurement": "mqol_drinks", "setting": "[2]; [10]", "result": "5 (2×) and 4"}, {"measurement": "mqol_eats", "setting": "[2]; [10]", "result": "5 (2×) and 4"}, {"measurement": "mqol_enjoyslife", "setting": "[2]; [10]", "result": "5 (2×) and 4"}, {"measurement": "mqol_lays", "setting": "[2]; [10]", "result": "5 (2×) and 2"}, {"measurement": "mqol_moves", "setting": "[2]; [10]", "result": "4 and 3 and 5"}, {"measurement": "mqol_play", "setting": "[2]; [10]", "result": "5 (2×) and 4"}, {"measurement": "mqol_presence", "setting": "[2]; [10]", "result": "5 (2×) and 4"}, {"measurement": "mqol_sleeps", "setting": "[2]; [10]", "result": "5 (2×) and 3"}, {"measurement": "Effect on severity of fatigue associated with doxorubicin treatment (in words)", "setting": "[2]; ladarixin added to doxorubicin and oclacitinib", "result": "reduced the severity of the known fatigue induced by the treatment with doxorubicin; also recorded: reduced the severity of the known fatigue associated to the treatment"}]}
{"compound": "CNS(=O)(=O)C[C@H]1CC[C@H](N(C)c2ncnc3[nH]ccc23)CC1", "note": "[oclacitinib]", "values": [{"measurement": "Ability to reduce severity of fatigue associated with chemotherapy (in words)", "setting": "[3]", "result": "not able to reduce the severity of fatigue associated with chemotherapy"}]}
{"compound": "CC(C)Cc1ccc([C@@H](C)C(=O)NS(C)(=O)=O)cc1", "note": "[reparixin, R-(−)-2-(4-isobutylphenyl)propionyl methansulfonamide]", "values": [{"measurement": "Severity of fatigue in patients experiencing fatigue (NCI-Common Toxicity Criteria Grade)", "setting": "[1]; all patients experiencing fatigue, mild and moderate", "result": "1-2 Grade"}, {"measurement": "Effect on incidence and severity of fatigue (in words)", "setting": "[1]; paclitaxel plus reparixin compared with paclitaxel and placebo", "result": "beneficial effect on incidence and severity of cancer-related fatigue; also recorded: significantly lower incidence and severity of treatment-related fatigue"}]}
{"compound": "NC(=O)C[S+]([O-])C(c1ccccc1)c1ccccc1", "note": "(stereo not drawn) [modafimil]", "values": [{"measurement": "Benefit over placebo in CRF (in words)", "setting": "[4]", "result": "no benefit over placebo"}]}
